Several values for one entry are separate records, joined by “and”; a condition that tells them apart may be missing. Identical values can stand only once.
Tested on: 485368-065-R4-J2-PDC spheroids with HUVEC/MSC, viability
Assay: Anticancer human tumor 485368-065-R4-J2-PDC patient-derived pancreatic carcinoma cell line growth inhibition [TAK]
Conditions: for viability, T/C: stronger effect = lower value
Description: Combinatorial screen of targeted agents with TAK-243 and ipatasertib in multi-cell type tumor spheroids
A high-throughput screen of multi-cell type tumor spheroids was designed to identify active combinations of targeted small molecules and TAK-243 or ipatasertib. Complex spheroids include a stromal component modeled by human endothelial cells (HUVEC) and fibroblasts modeled by human mesenchymal stem cells (MSCs). The concentration ranges selected for each drug and investigational agent were based upon clinically achievable concentrations if the clinical Cmax of the agent was known.
Compounds. The drugs and investigational agents: TAK-243 (785004), ipatasertib (767898), everolimus (733504), selumetinib (741078), bortezomib (756655), trametinib (758246), ixazomib (758254), vemurafenib (761431), dabrafenib (764134), sapanisertib (764658), alpelisib (765974), and copanlisib (816437), were obtained from the National Cancer Institute (NCI) Developmental Therapeutics Program Chemical Repository. The FDA-approved anticancer drug set is available from the NCI Developmental Therapeutics Program. […] The stock solutions were prepared in dimethyl sulfoxide (DMSO, Sigma-Aldrich, St. Louis, MO, cat. D2650) at 800-fold the tested concentration and stored at -70 degrees C prior to their use. All drugs and investigational agents were tested over a range starting from a high concentration at or near the clinical Cmax and decreasing in half-log increments. If the clinical Cmax for an agent had not been determined, the highest concentration tested was 10 microM.
NCI60 Cell Culture. NCI60 cell lines were obtained from the NCI Developmental Therapeutics Program Tumor Repository. For each lot of cells, the Repository performed Applied Biosystems AmpFLSTR Identifiler testing with PCR amplification to confirm consistency with the published Identifier STR profile for each cell line. Cells were kept in continuous culture for no more than 20 passages. The optimal seeding densities for each of the cell lines at each time point assessed were determined prior to performing the concentration response studies. Briefly, the NCI60 human tumor lines were grown as monolayers in RPMI 1640 medium supplemented with 10% FBS and 2 mmol/L L-glutamine.
An additional 2 lines were from the NCI60 cell line panel including melanomas, MALME-3M and SK-MEL-2. Pooled donor human umbilical vein endothelial cells (HUVEC, Lonza, cat. CC-2519) and human mesenchymal stem cells (hMSC, Lonza, cat. PT-2501) were purchased from Lonza (Walkersville, MD).
PDMR cell lines were grown in complete medium (DC medium): Dulbecco's modified Eagle's medium (DMEM)/F12 supplemented with 5% fetal bovine serum (FBS), 2 mM L-glutamine, 100 U/mL penicillin and 100 µg/ml streptomycin, 0.4 µg/ml hydrocortisone, 10 ng/ml epidermal growth factor (EGF) recombinant human protein, 24 µg/mL adenine, and 0.1 mg/mL primocin. During culture from frozen stock vials, PDMR cells were cultured in the same medium containing 10 µM Y-27632 (see Table 3). The PDCs were cultured in complete DMEM/F12 media without 10 microM Y-27632 dihydrochloride for at least two passages prior to the screen. The pooled donor HUVEC and hMSC were cultured in endothelial cell growth medium 2 (PromoCell, Heidelberg, Germany, cat. C-22011) and mesenchymal stem cell growth medium 2 (PromoCell, cat. C-28009), respectively. For all experiments, HUVEC and hMSC were used at passages </=5.
For the pre-screen, cell seeding densities were determined from a titration spanning the range from 5,000 to 313 cells per well. The mct-spheroids including 60% malignant cells, 25% HUVEC and 15% MSC dispensed as a mixture into U-bottom Ultra-Low Attachment 384-well plates (Corning, NY)
High-throughput Drug Combination Screening.
Prior to their inoculation into 384-well plates, malignant cells, HUVEC, and hMSC were removed from T flasks using TrypLE express (Thermo Fisher Scientific, cat. 12605036) and harvested by centrifugation for 5 min at 233 x g. […]
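Note: spheroids exposed to compounds for seven days before readout.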
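Throughout, for viability, T/C: 100% = DMSO vehicle control wells.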

Structure (SMILES): CC(=O)Nc1cccc(-n2c(=O)n(C3CC3)c(=O)c3c(Nc4ccc(I)cc4F)n(C)c(=O)c(C)c32)c1
- viability, T/C (compound 94.9 pM): 99.6% and 93%
- viability, T/C (compound 0.0003 µM): 77.8% and 84%
- viability, T/C (compound 0.000949 µM): 63.6% and 75.9%
- viability, T/C (compound 0.003 µM): 62.5% and 71%
- viability, T/C (compound 0.00949 µM): 45.7% and 50.3%
- viability, T/C (compound 0.03 µM): 29.4% and 30.5%
- IC50 (curve of compound): 5.19 nM and 10.4 nM

Structure (SMILES): CC(C)(C)c1nc(-c2cccc(NS(=O)(=O)c3c(F)cccc3F)c2F)c(-c2ccnc(N)n2)s1
- viability, T/C (compound 0.0316 µM): 111% and 113%
- viability, T/C (compound 0.1 µM): 101% and 105%
- viability, T/C (compound 0.316 µM): 84.3% and 89.6%
- viability, T/C (compound 1 µM): 57.7% and 75.8%
- viability, T/C (compound 3.16 µM): 57% and 60.5%
- viability, T/C (compound 10 µM): 49.8% and 54.4%
- IC50 (curve of compound): > 10000 nM

Structure (SMILES): CC(C)CC(NC(=O)C(Cc1ccccc1)NC(=O)c1cnccn1)B(O)O (stereo not given)
- viability, T/C (compound 31.6 pM): 108% and 103%
- viability, T/C (compound 0.0001 µM): 101%
- viability, T/C (compound 0.000316 µM): 96.3% and 89.7%
- viability, T/C (compound 0.001 µM): 99% and 102%
- viability, T/C (compound 0.00316 µM): 107% and 114%
- viability, T/C (compound 0.01 µM): 9.55% and 6.03%
- IC50 (curve of compound): 6.05 nM and 5.9 nM

Structure (SMILES): CC(C)CC(NC(=O)CNC(=O)c1cc(Cl)ccc1Cl)B1OC(=O)CC(CC(=O)O)(C(=O)O)O1 (stereo not given)
- viability, T/C (compound 0.000316 µM): 94.9% and 95.6%
- viability, T/C (compound 0.001 µM): 102% and 98.5%
- viability, T/C (compound 0.00316 µM): 94.6% and 94.7%
- viability, T/C (compound 0.01 µM): 108% and 110%
- viability, T/C (compound 0.0316 µM): 61.6% and 60.1%
- viability, T/C (compound 0.1 µM): 9.41% and 9.34%
- IC50 (curve of compound): 40.8 nM and 39.7 nM

Structure (SMILES): CC(C)NCC(C(=O)N1CCN(c2ncnc3c2C(C)CC3O)CC1)c1ccc(Cl)cc1 (stereo not given)
- viability, T/C (compound 0.3 µM): 95.9% [middle of 10 runs]
- viability, T/C (compound 0.949 µM): 94.7% [middle of 10 runs]
- viability, T/C (compound 3 µM): 99.1% [middle of 10 runs]
- viability, T/C (compound 9.49 µM): 91.6% [middle of 10 runs]
- viability, T/C (compound 30 µM): 78% [middle of 10 runs]
- IC50 (compound alone, run of 02/20/2020): > 30000 nM

Structure (SMILES): CC(C)n1nc(-c2ccc3oc(N)nc3c2)c2c(N)ncnc21
- viability, T/C (compound 0.000316 µM): 102% and 92.5%
- viability, T/C (compound 0.001 µM): 103% and 94.1%
- viability, T/C (compound 0.00316 µM): 89.2% and 90.2%
- viability, T/C (compound 0.01 µM): 87.3% and 94.1%
- viability, T/C (compound 0.0316 µM): 63.8% and 72.8%
- viability, T/C (compound 0.1 µM): 44.3% and 46.3%
- IC50 (curve of compound): 72.5 nM and 85 nM

Structure (SMILES): CCCS(=O)(=O)Nc1ccc(F)c(C(=O)c2c[nH]c3ncc(-c4ccc(Cl)cc4)cc23)c1F
- viability, T/C (compound 0.316 µM): 110% and 92.4%
- viability, T/C (compound 1 µM): 102% and 117%
- viability, T/C (compound 3.16 µM): 89.2% and 101%
- viability, T/C (compound 10 µM): 43.3% and 56.3%
- viability, T/C (compound 31.6 µM): 99.8% and 46.6%
- viability, T/C (compound 100 µM): 91.2% and 106%
- IC50 (curve of compound): > 100000 nM

Structure (SMILES): COC1CC2CCC(C)C(O)(O2)C(=O)C(=O)N2CCCCC2C(=O)OC(C(C)CC2CCC(OCCO)C(OC)C2)CC(=O)C(C)C=C(C)C(O)C(OC)C(=O)C(C)CC(C)C=CC=CC=C1C (stereo not given)
- viability, T/C (compound 0.000316 µM): 89.3% and 76.4%
- viability, T/C (compound 0.001 µM): 95.4% and 82.8%
- viability, T/C (compound 0.00316 µM): 91.1% and 89.1%
- viability, T/C (compound 0.01 µM): 92.2% and 96.3%
- viability, T/C (compound 0.0316 µM): 92.8% and 90.3%
- viability, T/C (compound 0.1 µM): 88.8% and 86.1%
- IC50 (curve of compound): > 100 nM
